Experimental data reported in ChEMBL document CHEMBL3352582, “Protective effects of aloe-emodin on scopolamine-induced memory impairment in mice and H₂O₂-induced cytotoxicity in PC12 cells” (Bioorg Med Chem Lett, 2014).
Active and inactive are the calls of the source. No cut-off for these calls is given here.

Assays:
PC-12 [1] = experiment: Inhibition of H2O2-induced LDH release in rat PC12 cells at 20 uM incubated for 24 hrs prior to H2O2 challenge measured after 2 hrs relative to control; format: functional, cell-based
PC-12 [2] = experiment: Inhibition of H2O2-induced NO production in rat PC12 cells at 20 uM incubated for 24 hrs prior to H2O2 challenge measured after 2 hrs relative to control; format: functional, cell-based
PC-12 [3] = experiment: Cytoprotective effect against H2O2-induced cell death in rat PC12 cells at 20 uM incubated for 24 hrs prior to H2O2 challenge measured after 2 hrs by MTT assay; format: functional, cell-based
Mus musculus [4] = experiment: Neuroprotective effect in Kunming mouse assessed as increase in scopolamine-induced reduction in time spent in platform crossing at 50 to 100 mg/kg, po qd administered for 15 days followed by 1 hr prior to trial session for 6 days measured at day 5 by Morris water maze test relative to sham control; format: functional, organism-based
Mus musculus [5] = experiment: Neuroprotective effect in Kunming mouse assessed as increase in scopolamine-induced reduction in SOD level in hippocampus at 25 to 100 mg/kg, po qd administered for 15 days followed by 1 hr prior to trial session for 6 days relative to control; format: functional, organism-based
[6] = Cytotoxicity against rat PC12 cells at 1 to 20 ug/ml by MTT assay; format: cell-based; settings: pc-12
Mus musculus [7] = experiment: Neuroprotective effect in po dosed Kunming mouse assessed as increase in scopolamine-induced reduction in time spent in platform crossing administered qd for 15 days followed by 1 hr prior to trial session for 6 days by Morris water maze test; format: functional, organism-based
Mus musculus [8] = experiment: Neuroprotective effect in Kunming mouse assessed as increase in scopolamine-induced reduction in GPx level in hippocampus at 25 to 100 mg/kg, po qd administered for 15 days followed by 1 hr prior to trial session for 6 days relative to control; format: functional, organism-based
Mus musculus [9] = experiment: Neuroprotective effect in Kunming mouse assessed as reversal of scopolamine-induced reduction in ACh level in hippocampus at 25 to 100 mg/kg, po qd administered for 15 days followed by 1 hr prior to trial session for 6 days; format: functional, organism-based
Mus musculus [10] = experiment: Neuroprotective effect in Kunming mouse assessed as reduction in scopolamine-induced increase in MDA level in hippocampus at 25 to 100 mg/kg, po qd administered for 15 days followed by 1 hr prior to trial session for 6 days relative to control; format: functional, organism-based
PC-12 [11] = experiment: Inhibition of H2O2-induced NO production in rat PC12 cells at 5 ug/ml incubated for 24 hrs prior to H2O2 challenge measured after 2 hrs relative to control; format: functional
Acetylcholinesterase [12] = target: T1, Acetylcholinesterase (Homo sapiens, UniProt P22303); settings: 40 ug/ml
T1 sequence (P22303 whole entry): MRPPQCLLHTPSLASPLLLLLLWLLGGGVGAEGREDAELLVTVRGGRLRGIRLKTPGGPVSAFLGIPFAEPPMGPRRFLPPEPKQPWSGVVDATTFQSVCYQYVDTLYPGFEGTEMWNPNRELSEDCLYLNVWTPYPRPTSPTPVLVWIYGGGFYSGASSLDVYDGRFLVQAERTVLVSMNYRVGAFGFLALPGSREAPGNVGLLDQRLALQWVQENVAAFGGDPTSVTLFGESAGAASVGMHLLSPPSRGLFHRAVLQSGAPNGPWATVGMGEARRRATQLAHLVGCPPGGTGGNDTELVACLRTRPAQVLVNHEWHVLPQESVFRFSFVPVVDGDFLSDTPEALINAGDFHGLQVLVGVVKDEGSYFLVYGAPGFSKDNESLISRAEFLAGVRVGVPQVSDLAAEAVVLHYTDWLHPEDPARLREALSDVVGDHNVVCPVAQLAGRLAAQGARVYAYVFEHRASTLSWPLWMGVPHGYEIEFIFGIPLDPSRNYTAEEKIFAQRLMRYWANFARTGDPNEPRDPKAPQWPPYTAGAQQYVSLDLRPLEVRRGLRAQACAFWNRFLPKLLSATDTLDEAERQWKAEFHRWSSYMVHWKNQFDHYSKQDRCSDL
Description: Inhibition of AChE (unknown origin) at 40 ug/ml by Ellman's method

PC-12 [13] = experiment: Inhibition of H2O2-induced NO production in rat PC12 cells at 20 ug/ml incubated for 24 hrs prior to H2O2 challenge measured after 2 hrs relative to control; format: functional
Mus musculus [14] = experiment: Neuroprotective effect in Kunming mouse assessed as reversal of scopolamine-induced effect on spatial memory performance at 100 mg/kg, po qd administered for 15 days followed by 1 hr prior to trial session for 6 days by Morris water maze test relative to sham control; format: functional, organism-based; parameters: dose 100 mg/kg
[15] = Cytoprotective effect against H2O2-induced cell death in rat PC12 cells at 20 ug/ml incubated for 24 hrs prior to H2O2 challenge measured after 2 hrs by MTT assay; format: functional, PC-12
PC-12 [16] = experiment: Inhibition of H2O2-induced NO production in rat PC12 cells at 10 ug/ml incubated for 24 hrs prior to H2O2 challenge measured after 2 hrs relative to control; format: functional
Mus musculus [17] = experiment: Neuroprotective effect in Kunming mouse assessed as reduction in scopolamine-induced impairment in spatial learning and memory at 25 to 100 mg/kg, po qd administered for 15 days followed by 1 hr prior to trial session for 6 days measured at day 5 by Morris water maze test relative to sham control; format: functional, organism-based
Mus musculus [18] = experiment: Neuroprotective effect in Kunming mouse assessed as increase in scopolamine-induced reduction in swim speed at 25 to 100 mg/kg, po qd administered for 15 days followed by 1 hr prior to trial session for 6 days measured at day 5 by Morris water maze test relative to sham control; format: functional, organism-based
Acetylcholinesterase [19] = target: T1, Acetylcholinesterase; experiment: Inhibition of AChE (unknown origin) by Ellman's method
Mus musculus [20] = experiment: Neuroprotective effect in Kunming mouse assessed as increase in scopolamine-induced reduction in time spent in target quadrant at 50 to 100 mg/kg, po qd administered for 15 days followed by 1 hr prior to trial session for 6 days measured at day 5 by Morris water maze test relative to sham control; format: functional, organism-based
[21] = Cytoprotective effect against H2O2-induced cell death in rat PC12 cells at 10 ug/ml incubated for 24 hrs prior to H2O2 challenge measured after 2 hrs by MTT assay; format: functional, PC-12
PC-12 [22] = experiment: Inhibition of intracellular ROS generation in rat PC12 cells at 20 ug/ml incubated for 24 hrs prior to H2O2 challenge measured after 2 hrs by fluorescence assay relative to control; format: functional; settings: values are per cent of control
Mus musculus [23] = experiment: Neuroprotective effect in Kunming mouse assessed as reversal of scopolamine-induced increase in AChE activity in hippocampus at 100 mg/kg, po qd administered for 15 days followed by 1 hr prior to trial session for 6 days relative to sham control; format: functional, organism-based; parameters: dose 100 mg/kg
Mus musculus [24] = experiment: Neuroprotective effect in Kunming mouse assessed as reversal of scopolamine-induced increase in AChE activity in hippocampus at 25 to 100 mg/kg, po qd administered for 15 days followed by 1 hr prior to trial session for 6 days; format: functional, organism-based
PC-12 [25] = experiment: Inhibition of H2O2-induced LDH release in rat PC12 cells at 5 to 20 ug/ml incubated for 24 hrs prior to H2O2 challenge measured after 2 hrs relative to control; format: functional, cell-based
Mus musculus [26] = experiment: Neuroprotective effect in Kunming mouse assessed as reduction in scopolamine-induced escape latency at 100 mg/kg, po qd administered for 15 days followed by 1 hr prior to trial session for 6 days by Morris water maze test; format: functional, organism-based; parameters: dose 100 mg/kg
[27] = Cytoprotective effect against H2O2-induced cell death in rat PC12 cells at 5 ug/ml incubated for 24 hrs prior to H2O2 challenge measured after 2 hrs by MTT assay; format: functional, PC-12
PC-12 [28] = experiment: Inhibition of H2O2-induced NO production in rat PC12 cells incubated for 24 hrs prior to H2O2 challenge measured after 2 hrs relative to control; format: functional, cell-based
PC-12 [29] = experiment: Inhibition of intracellular ROS generation in rat PC12 cells at 5 ug/ml incubated for 24 hrs prior to H2O2 challenge measured after 2 hrs by fluorescence assay relative to control; format: functional; settings: values are per cent of control
PC-12 [30] = experiment: Inhibition of intracellular ROS generation in rat PC12 cells at 10 ug/ml incubated for 24 hrs prior to H2O2 challenge measured after 2 hrs by fluorescence assay relative to control; format: functional; settings: values are per cent of control
Mus musculus [31] = experiment: Neuroprotective effect in po dosed Kunming mouse assessed as increase in scopolamine-induced reduction in time spent in target quadrant administered qd for 15 days followed by 1 hr prior to trial session for 6 days by Morris water maze test; format: functional, organism-based
Mus musculus [32] = experiment: Neuroprotective effect in po dosed Kunming mouse assessed as reduction in scopolamine-induced escape latency administered qd for 15 days followed by 1 hr prior to trial session for 6 days by Morris water maze test; format: functional, organism-based
Mus musculus [33] = experiment: Neuroprotective effect in Kunming mouse assessed as increase in scopolamine-induced reduction in time spent in target quadrant at 0.1 mg/kg, po qd administered for 15 days followed by 1 hr prior to trial session for 6 days measured at day 5 by Morris water maze test relative to sham control; format: functional, organism-based; parameters: dose 0.1 mg/kg
Mus musculus [34] = experiment: Neuroprotective effect in Kunming mouse assessed as increase in scopolamine-induced reduction in time spent in platform crossing at 0.1 mg/kg, po qd administered for 15 days followed by 1 hr prior to trial session for 6 days measured at day 5 by Morris water maze test relative to sham control; format: functional, organism-based; parameters: dose 0.1 mg/kg
Mus musculus [35] = experiment: Neuroprotective effect in Kunming mouse assessed as reduction in scopolamine-induced escape latency at 0.1 mg/kg, po qd administered for 15 days followed by 1 hr prior to trial session for 6 days by Morris water maze test; format: functional, organism-based; parameters: dose 0.1 mg/kg
Mus musculus [36] = experiment: Neuroprotective effect in Kunming mouse assessed as reversal of scopolamine-induced increase in AChE activity in hippocampus at 0.1 mg/kg, po qd administered for 15 days followed by 1 hr prior to trial session for 6 days; format: functional, organism-based; parameters: dose 0.1 mg/kg
Mus musculus [37] = experiment: Neuroprotective effect in Kunming mouse assessed as reduction in scopolamine-induced increase in MDA level in hippocampus at 0.1 mg/kg, po qd administered for 15 days followed by 1 hr prior to trial session for 6 days relative to control; format: functional, organism-based; parameters: dose 0.1 mg/kg
Mus musculus [38] = experiment: Neuroprotective effect in Kunming mouse assessed as increase in scopolamine-induced reduction in GPx level in hippocampus at 0.1 mg/kg, po qd administered for 15 days followed by 1 hr prior to trial session for 6 days relative to control; format: functional, organism-based; parameters: dose 0.1 mg/kg
Mus musculus [39] = experiment: Neuroprotective effect in Kunming mouse assessed as increase in scopolamine-induced reduction in SOD level in hippocampus at 0.1 mg/kg, po qd administered for 15 days followed by 1 hr prior to trial session for 6 days relative to control; format: functional, organism-based; parameters: dose 0.1 mg/kg
Mus musculus [40] = experiment: Neuroprotective effect in Kunming mouse assessed as reversal of scopolamine-induced reduction in ACh level in hippocampus at 0.1 mg/kg, po qd administered for 15 days followed by 1 hr prior to trial session for 6 days; format: functional, organism-based; parameters: dose 0.1 mg/kg

VITAMIN E
inhibition (PC-12 [1]): Active | inhibition (PC-12 [2]): 76.2% | Activity (PC-12 [3]): Active

O=C1c2cccc(O)c2C(=O)c2c(O)cc(CO)cc21 [ALOE-EMODIN]
Activity (Mus musculus [4]): Active | Activity (Mus musculus [5]): Active | Activity [6]: Non-toxic | Activity (Mus musculus [7]): Dose-dependent effect | Activity (Mus musculus [8]): Active | Activity (Mus musculus [9]): Active | Activity (Mus musculus [10]): Active | inhibition at 5 µg/mL (PC-12 [11]): 27.8% | inhibition (Acetylcholinesterase [12]): 70% | inhibition at 20 µg/mL (PC-12 [13]): 64.3% | Activity (Mus musculus [14]): Active | Activity [15]: 88.7% | inhibition at 10 µg/mL (PC-12 [16]): 46.4% | Activity (Mus musculus [17]): Active | Activity (Mus musculus [18]): Active | IC50 (Acetylcholinesterase [19]): 68 µM | Activity (Mus musculus [20]): Active | Activity [21]: 81% | response, % of control at 20 µg/mL (PC-12 [22]): 149% | Activity (Mus musculus [23]): inactive | Activity (Mus musculus [24]): Active | inhibition (PC-12 [25]): Active | Activity (Mus musculus [26]): Active | Activity [27]: 72.9% | inhibition (PC-12 [28]): Dose-dependent effect | response, % of control at 5 µg/mL (PC-12 [29]): 195% | response, % of control at 10 µg/mL (PC-12 [30]): 165% | Activity (Mus musculus [31]): Dose-dependent effect | Activity (Mus musculus [32]): Dose-dependent effect

C/C=C1\[C@H]2C=C(C)C[C@]1(N)c1ccc(=O)[nH]c1C2
Activity (Mus musculus [33]): Active | Activity (Mus musculus [34]): Active | Activity (Mus musculus [35]): Active | Activity (Mus musculus [36]): Active | Activity (Mus musculus [37]): Active | Activity (Mus musculus [38]): Active | Activity (Mus musculus [39]): Active | Activity (Mus musculus [40]): Active
